# Inconclusive results and toxic doses are left out.
# System: P388 leukemia ip, CD2F1 mice, survival T/C
# Experiment: NCI In Vivo Anticancer Drug Screen. Data for tumor model P388 Leukemia (intraperitoneal) in CD2F1 (CDF1) mice
# Details: endpoint: median survival time, higher = longer survival
# Outline: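 Mice carrying the transplanted tumor received test compound or vehicle. Survival was recorded in each group, and the value is the treated-group measurement divided by that of the vehicle-treated control group.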
# [1] = dose: 60.0 mg/kg/injection, schedule: Q01DX005 (ip), vehicle: saline with Tween-80
# [2] = dose: 120.0 mg/kg/injection, schedule: Q01DX005 (ip), vehicle: saline with Tween-80
# [3] = dose: 240.0 mg/kg/injection, schedule: Q01DX005 (ip), vehicle: saline with Tween-80
# [4] = dose: 12.5 mg/kg/injection, schedule: Q01DX009 (ip), vehicle: saline
# [5] = dose: 25.0 mg/kg/injection, schedule: Q01DX009 (ip), vehicle: saline
# [6] = dose: 50.0 mg/kg/injection, schedule: Q01DX009 (ip), vehicle: saline
smiles,measurement,setting,value
C/C(Cl)=C/CN(C/C=C(/C)Cl)CCO,T/C,"dose: 50.0 mg/kg/injection, schedule: Q01DX005 (ip), vehicle: saline with Tween-80",101 % of control
same,T/C,"dose: 100.0 mg/kg/injection, schedule: Q01DX005 (ip), vehicle: saline with Tween-80",102 % of control
CCCNC1(N(C)C)N=C(N(C)C)N=C(N(C)C)O1 (stereo unspecified),T/C,"dose: 50.0 mg/kg/injection, schedule: Q01DX005 (ip), vehicle: saline",102 % of control
same,T/C,"dose: 100.0 mg/kg/injection, schedule: Q01DX005 (ip), vehicle: saline",95 % of control
Cc1cc2nc(SCC(N)=O)nn2c(C)n1,T/C,[1],100 % of control
same,T/C,[2],100 % of control
same,T/C,[3],99 % of control
CNC/C(Cl)=N/S(=O)(=O)c1ccc(C)cc1,T/C,[1],99 % of control
same,T/C,[2],99 % of control
same,T/C,[3],105 % of control
CCC(=O)NC1=C(N2CC2C)C(=O)C(NC(=O)CC)=C(N2CC2C)C1=O (stereo unspecified),T/C,"dose: 12.5 mg/kg/injection, schedule: Q01DX009 (ip), vehicle: Klucel (hydroxypropylcellulose) (HPC)",210 % of control
same,T/C,[4],164 % of control
same,T/C,"dose: 25.0 mg/kg/injection, schedule: Q01DX009 (ip), vehicle: Klucel (hydroxypropylcellulose) (HPC)",103 % of control
same,T/C,[5],117 % of control
Cc1ccc(S(=O)(=O)n2cccn2)cc1,T/C,"dose: 6.25 mg/kg/injection, schedule: Q01DX009 (ip), vehicle: distilled water + Tween-80",95 % of control
same,T/C,"dose: 12.5 mg/kg/injection, schedule: Q01DX009 (ip), vehicle: distilled water + Tween-80",100 % of control
same,T/C,"dose: 25.0 mg/kg/injection, schedule: Q01DX009 (ip), vehicle: distilled water + Tween-80",94 % of control
same,T/C,"dose: 25.0 mg/kg/injection, schedule: Q01DX009 (ip), vehicle: other",88 % of control
same,T/C,"dose: 50.0 mg/kg/injection, schedule: Q01DX009 (ip), vehicle: distilled water + Tween-80",105 % of control
same,T/C,"dose: 100.0 mg/kg/injection, schedule: Q01DX009 (ip), vehicle: distilled water + Tween-80",99 % of control
same,T/C,"dose: 100.0 mg/kg/injection, schedule: Q01DX009 (ip), vehicle: other",113 % of control
same,T/C,"dose: 200.0 mg/kg/injection, schedule: Q01DX009 (ip), vehicle: other",104 % of control
same,T/C,"dose: 400.0 mg/kg/injection, schedule: Q01DX009 (ip), vehicle: other",112 % of control
Cc1cc(=O)n2c(n1)sc1ccc3ccccc3c12,T/C,[1],100 % of control
same,T/C,[2],100 % of control
same,T/C,[3],97 % of control
COc1ccc(CC2(C(=O)O)NCCS2)cc1OC (stereo unspecified),T/C,"dose: 100.0 mg/kg/injection, schedule: Q04DX003 (ip), vehicle: Klucel (hydroxypropylcellulose) (HPC)",101 % of control
same,T/C,"dose: 200.0 mg/kg/injection, schedule: Q04DX003 (ip), vehicle: Klucel (hydroxypropylcellulose) (HPC)",98 % of control
CC(=O)NC(Cc1ccccc1F)C(=O)O (stereo unspecified),T/C,[6],94 % of control
same,T/C,"dose: 100.0 mg/kg/injection, schedule: Q01DX009 (ip), vehicle: saline",94 % of control
same,T/C,"dose: 200.0 mg/kg/injection, schedule: Q01DX009 (ip), vehicle: saline",97 % of control
CN(C)c1ccc(/C=C/c2ccc(Br)cc2)cc1,T/C,"dose: 50.0 mg/kg/injection, schedule: Q01DX009 (ip), vehicle: saline with Tween-80",89 % of control
same,T/C,"dose: 100.0 mg/kg/injection, schedule: Q01DX009 (ip), vehicle: saline with Tween-80",88 % of control
same,T/C,"dose: 200.0 mg/kg/injection, schedule: Q01DX009 (ip), vehicle: saline with Tween-80",89 % of control
CC1(C)c2c3ccccc3cc3cccc(c23)[S+]1c1ccccc1 (stereo unspecified),T/C,"dose: 5.0 mg/kg/injection, schedule: Q04DX003 (ip), vehicle: saline",100 % of control
same,T/C,"dose: 10.0 mg/kg/injection, schedule: Q04DX003 (ip), vehicle: saline",104 % of control
same,T/C,"dose: 20.0 mg/kg/injection, schedule: Q04DX003 (ip), vehicle: saline",108 % of control
O=S(=O)(O)SCCN1CCCC1,T/C,[4],105 % of control
same,T/C,[5],110 % of control
same,T/C,[6],110 % of control
COc1ccc2[nH]c3c(c2c1)CCNC3CC(C)CCC=C(C)C (stereo unspecified),T/C,"dose: 12.5 mg/kg/injection, schedule: Q01DX009 (ip), vehicle: saline with Tween-80",99 % of control
same,T/C,"dose: 25.0 mg/kg/injection, schedule: Q01DX009 (ip), vehicle: saline with Tween-80",98 % of control
Cc1cc(-c2ccc(N3C(=O)CC4(CCCC4)C3=O)c(C)c2)ccc1N1C(=O)CC2(CCCC2)C1=O,T/C,"dose: 50.0 mg/kg/injection, schedule: Q01DX009 (ip), vehicle: Klucel (hydroxypropylcellulose) (HPC)",97 % of control
same,T/C,"dose: 100.0 mg/kg/injection, schedule: Q01DX009 (ip), vehicle: Klucel (hydroxypropylcellulose) (HPC)",96 % of control
same,T/C,"dose: 200.0 mg/kg/injection, schedule: Q01DX009 (ip), vehicle: Klucel (hydroxypropylcellulose) (HPC)",96 % of control
Cc1c[nH]c2nc(C)n(-c3ccc(Cl)cc3)c(=N)c12,T/C,"dose: 12.5 mg/kg/injection, schedule: Q01DX005 (ip), vehicle: Klucel (hydroxypropylcellulose) (HPC)",98 % of control
same,T/C,"dose: 25.0 mg/kg/injection, schedule: Q01DX005 (ip), vehicle: Klucel (hydroxypropylcellulose) (HPC)",104 % of control
same,T/C,"dose: 50.0 mg/kg/injection, schedule: Q01DX005 (ip), vehicle: Klucel (hydroxypropylcellulose) (HPC)",103 % of control
CC(C)C(=O)N1CCCCCN1C(=O)C(C)C,T/C,"dose: 100.0 mg/kg/injection, schedule: Q01DX001 (ip), vehicle: suspension in saline",100 % of control
same,T/C,"dose: 200.0 mg/kg/injection, schedule: Q01DX001 (ip), vehicle: suspension in saline",95 % of control
same,T/C,"dose: 400.0 mg/kg/injection, schedule: Q01DX001 (ip), vehicle: suspension in saline",94 % of control

# From PubChem BioAssay AID330 (DTP/NCI, 2004)
